From ChEMBL document CHEMBL1201862, “PubChem BioAssay data set” (2004)
Calls of active or inactive are those of the source.

How the values were obtained:
[1] = molecular target: T1, Caspase-3 (Homo sapiens, UniProt P42574); format: functional;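 further: Dose-response selectivity test against caspase-3 for candidate inhibitors of sentrin-specific proteases (SENPs)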
T1 sequence (P42574 whole entry): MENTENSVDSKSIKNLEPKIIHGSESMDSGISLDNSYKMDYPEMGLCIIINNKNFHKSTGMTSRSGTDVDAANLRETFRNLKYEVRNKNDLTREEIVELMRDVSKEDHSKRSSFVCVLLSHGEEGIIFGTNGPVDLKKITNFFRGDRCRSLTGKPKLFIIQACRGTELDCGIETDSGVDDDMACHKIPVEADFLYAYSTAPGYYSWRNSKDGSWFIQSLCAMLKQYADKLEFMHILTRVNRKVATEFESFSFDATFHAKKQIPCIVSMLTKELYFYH

[2] = molecular target: T2, COUP transcription factor 2 (Homo sapiens, UniProt P24468); test: Luminescence-based cell-based high throughput dose response assay to identify inhibitors of COUP-TFII (NR2F2).; format: functional;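 further: HEK293 cells transiently cotransfected with COUP-TFII expression vector and reporter; luciferase reporter luminescence driven by COUP-TFII from the pX2-168 reporter plasmid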
T2 sequence (P24468 whole entry): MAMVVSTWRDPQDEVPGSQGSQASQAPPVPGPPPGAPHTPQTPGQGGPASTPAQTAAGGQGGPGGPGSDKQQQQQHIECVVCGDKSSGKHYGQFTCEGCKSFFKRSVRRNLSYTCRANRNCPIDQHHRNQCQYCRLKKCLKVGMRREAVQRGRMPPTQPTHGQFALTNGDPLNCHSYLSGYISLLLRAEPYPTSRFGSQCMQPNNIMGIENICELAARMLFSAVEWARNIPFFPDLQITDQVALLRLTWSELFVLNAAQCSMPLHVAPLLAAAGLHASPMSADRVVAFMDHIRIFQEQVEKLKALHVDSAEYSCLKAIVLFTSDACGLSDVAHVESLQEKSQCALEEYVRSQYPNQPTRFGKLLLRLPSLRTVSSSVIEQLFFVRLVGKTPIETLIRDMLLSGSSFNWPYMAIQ

[3] = molecular target: T3, Sentrin-specific protease 7 (Homo sapiens, UniProt Q9BQF6); format: functional;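 further: Luminescence-based dose-response confirmation of ultra-high-throughput screening hits, measuring inhibition of SENP7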
T3 sequence (Q9BQF6 whole entry): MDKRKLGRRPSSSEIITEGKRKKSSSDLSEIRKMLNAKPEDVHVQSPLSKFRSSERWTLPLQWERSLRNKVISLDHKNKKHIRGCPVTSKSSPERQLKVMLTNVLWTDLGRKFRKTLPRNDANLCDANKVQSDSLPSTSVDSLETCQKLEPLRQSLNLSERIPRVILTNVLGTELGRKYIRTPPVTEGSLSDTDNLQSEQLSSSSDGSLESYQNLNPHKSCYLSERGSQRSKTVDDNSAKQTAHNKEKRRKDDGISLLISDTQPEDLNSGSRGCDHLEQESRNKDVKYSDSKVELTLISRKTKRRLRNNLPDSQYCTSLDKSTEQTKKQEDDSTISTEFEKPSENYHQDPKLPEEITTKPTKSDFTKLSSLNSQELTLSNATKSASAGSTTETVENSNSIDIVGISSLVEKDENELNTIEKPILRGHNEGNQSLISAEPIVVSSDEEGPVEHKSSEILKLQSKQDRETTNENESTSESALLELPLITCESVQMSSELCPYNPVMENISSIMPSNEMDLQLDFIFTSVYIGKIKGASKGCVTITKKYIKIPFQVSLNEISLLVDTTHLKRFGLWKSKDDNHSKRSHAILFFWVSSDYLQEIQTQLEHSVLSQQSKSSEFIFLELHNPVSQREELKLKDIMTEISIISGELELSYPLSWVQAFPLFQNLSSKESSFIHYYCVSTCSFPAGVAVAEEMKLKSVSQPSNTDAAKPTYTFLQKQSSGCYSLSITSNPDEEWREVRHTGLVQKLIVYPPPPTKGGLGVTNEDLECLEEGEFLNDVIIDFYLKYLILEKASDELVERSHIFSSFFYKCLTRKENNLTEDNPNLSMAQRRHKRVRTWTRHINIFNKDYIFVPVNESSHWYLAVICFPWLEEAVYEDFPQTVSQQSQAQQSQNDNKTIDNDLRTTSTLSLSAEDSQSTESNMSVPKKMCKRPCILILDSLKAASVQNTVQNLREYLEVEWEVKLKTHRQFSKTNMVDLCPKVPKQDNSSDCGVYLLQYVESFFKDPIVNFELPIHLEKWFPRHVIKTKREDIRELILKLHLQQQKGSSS

[4] = cells; format: functional, cell-based
[5] = test system: BJ; test: cells; format: functional, cell-based; conditions: Homo sapiens
[6] = test system: HEK293; test: EBV LMP1 TES2 canonical NF-kB signalling blockers – cell-based, HEK293, luciferase, cherry-pick, dose response (AID 588343); format: functional; conditions: Homo sapiens
[7] = NIH3T3 cell viability loss – ATP luminescence, mouse fibroblasts, counter-screen, dose response (AID 2010); format: functional, cell-based;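 further: cells exposed to compound for about 90 hours before reading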
[8] = molecular target: ATP-dependent molecular chaperone HSP82 (Candida albicans (strain WO-1) (Yeast), UniProt C4YTQ8); test: steroid-induced GRE reporter decrease in yeast – S. cerevisiae, luminescence, Hsp90 inhibitor project, dose response (AID 2400); format: functional, cell-based;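 further: beta-galactosidase luminescence from glucocorticoid response element reporter as proxy for Hsp90 function; inhibitor potency where signal loss means Hsp90 inhibition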
[9] = molecular target: Hexokinase-1 (Homo sapiens, UniProt P19367); test: HK1 enzyme activation by HKDC1 hits – biochemical, selectivity assay for HKDC1 activator project, dose response (AID 504762); format: functional
[10] = test system: BJ; test: BJ-TERT fibroblast viability loss – cell-based, RAS-independent, luminescence, dose response (AID 1933); format: functional; conditions: Homo sapiens
[11] = DRD fibroblast viability loss – cell-based, non-viral oncogenic, luminescence, dose response (AID 1934); format: functional; conditions: Homo sapiens
[12] = reduction of Shn3 3'UTR-driven luciferase in osteoblasts – cell-based, Clone20 osteoblasts, firefly luciferase, cherry-picked, dose response (AID 624132); format: functional;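 further: firefly luciferase luminescence from reporter carrying the Shn3 3'UTR in osteoblasts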
[13] = molecular target: Hexokinase HKDC1 (Homo sapiens, UniProt Q2TB90); test: activation of HKDC1 glucose phosphorylation – biochemical, W721R variant, dose response (AID 504730); format: functional
[14] = fluconazole-exposed Candida albicans growth modulators – fluorescence, retest, confirmation (AID 2467); format: functional, cell-based
[15] = non-specific 3'UTR reporter inhibition in Clone20-Shn3RL – cell-based, Renilla luciferase, cherry-picked, counter-screen for Shn3 inhibitor project, dose response (AID 624133); format: functional
[16] = cells
[17] = Counterscreen for AddAB inhibitors: absorbance-based bacterial cell-based high throughput dose response assay for inhibitors of bacterial viability. [Related pubchem assays (depositor defined):AID435030, AID449728, AID449731, AID488942, AID488955, AID488956]; format: functional

ATP-dependent molecular chaperone HSP82, sequence (C4YTQ8 whole entry): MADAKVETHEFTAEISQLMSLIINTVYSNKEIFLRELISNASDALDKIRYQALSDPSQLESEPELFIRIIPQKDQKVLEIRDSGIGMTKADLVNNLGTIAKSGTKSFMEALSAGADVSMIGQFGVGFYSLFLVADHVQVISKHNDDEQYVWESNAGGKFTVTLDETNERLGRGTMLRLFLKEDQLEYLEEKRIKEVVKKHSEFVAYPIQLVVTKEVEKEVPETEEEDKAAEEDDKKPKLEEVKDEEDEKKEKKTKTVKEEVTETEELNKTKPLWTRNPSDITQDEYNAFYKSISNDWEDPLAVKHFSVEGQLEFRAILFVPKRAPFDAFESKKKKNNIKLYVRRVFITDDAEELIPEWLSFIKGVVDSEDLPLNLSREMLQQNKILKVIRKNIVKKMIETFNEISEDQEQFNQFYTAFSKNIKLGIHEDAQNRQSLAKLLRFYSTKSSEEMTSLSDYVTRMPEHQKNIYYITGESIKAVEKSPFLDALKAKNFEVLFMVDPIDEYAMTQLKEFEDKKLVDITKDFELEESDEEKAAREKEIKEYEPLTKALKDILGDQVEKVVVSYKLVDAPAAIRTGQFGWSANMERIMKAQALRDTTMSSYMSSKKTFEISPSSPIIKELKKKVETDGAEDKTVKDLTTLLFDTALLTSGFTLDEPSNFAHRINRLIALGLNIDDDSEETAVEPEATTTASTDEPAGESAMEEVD
Hexokinase-1, sequence (P19367 whole entry): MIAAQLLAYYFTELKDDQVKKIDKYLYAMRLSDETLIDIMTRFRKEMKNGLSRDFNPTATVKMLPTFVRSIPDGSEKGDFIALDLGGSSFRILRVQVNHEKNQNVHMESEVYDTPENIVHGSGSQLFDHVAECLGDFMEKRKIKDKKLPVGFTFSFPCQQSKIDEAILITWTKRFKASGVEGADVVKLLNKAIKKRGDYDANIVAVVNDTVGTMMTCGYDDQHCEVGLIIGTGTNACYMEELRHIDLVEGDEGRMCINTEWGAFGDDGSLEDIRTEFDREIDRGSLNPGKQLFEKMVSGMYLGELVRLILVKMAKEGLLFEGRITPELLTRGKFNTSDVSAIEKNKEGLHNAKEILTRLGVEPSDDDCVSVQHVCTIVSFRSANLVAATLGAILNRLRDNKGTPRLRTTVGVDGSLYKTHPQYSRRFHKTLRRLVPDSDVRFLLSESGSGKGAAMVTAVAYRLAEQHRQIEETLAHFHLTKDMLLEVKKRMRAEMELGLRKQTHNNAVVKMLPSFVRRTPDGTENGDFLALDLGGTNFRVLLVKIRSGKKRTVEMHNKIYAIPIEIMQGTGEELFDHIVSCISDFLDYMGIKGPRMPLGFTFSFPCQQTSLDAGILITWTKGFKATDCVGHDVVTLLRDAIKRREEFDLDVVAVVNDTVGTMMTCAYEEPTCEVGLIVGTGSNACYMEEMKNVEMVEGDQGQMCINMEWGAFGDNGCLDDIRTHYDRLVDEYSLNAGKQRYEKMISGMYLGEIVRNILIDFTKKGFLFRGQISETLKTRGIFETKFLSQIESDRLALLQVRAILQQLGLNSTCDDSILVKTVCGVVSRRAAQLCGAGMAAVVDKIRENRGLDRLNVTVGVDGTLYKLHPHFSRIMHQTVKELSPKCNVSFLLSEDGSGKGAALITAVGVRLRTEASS
Hexokinase HKDC1, sequence (Q2TB90 whole entry): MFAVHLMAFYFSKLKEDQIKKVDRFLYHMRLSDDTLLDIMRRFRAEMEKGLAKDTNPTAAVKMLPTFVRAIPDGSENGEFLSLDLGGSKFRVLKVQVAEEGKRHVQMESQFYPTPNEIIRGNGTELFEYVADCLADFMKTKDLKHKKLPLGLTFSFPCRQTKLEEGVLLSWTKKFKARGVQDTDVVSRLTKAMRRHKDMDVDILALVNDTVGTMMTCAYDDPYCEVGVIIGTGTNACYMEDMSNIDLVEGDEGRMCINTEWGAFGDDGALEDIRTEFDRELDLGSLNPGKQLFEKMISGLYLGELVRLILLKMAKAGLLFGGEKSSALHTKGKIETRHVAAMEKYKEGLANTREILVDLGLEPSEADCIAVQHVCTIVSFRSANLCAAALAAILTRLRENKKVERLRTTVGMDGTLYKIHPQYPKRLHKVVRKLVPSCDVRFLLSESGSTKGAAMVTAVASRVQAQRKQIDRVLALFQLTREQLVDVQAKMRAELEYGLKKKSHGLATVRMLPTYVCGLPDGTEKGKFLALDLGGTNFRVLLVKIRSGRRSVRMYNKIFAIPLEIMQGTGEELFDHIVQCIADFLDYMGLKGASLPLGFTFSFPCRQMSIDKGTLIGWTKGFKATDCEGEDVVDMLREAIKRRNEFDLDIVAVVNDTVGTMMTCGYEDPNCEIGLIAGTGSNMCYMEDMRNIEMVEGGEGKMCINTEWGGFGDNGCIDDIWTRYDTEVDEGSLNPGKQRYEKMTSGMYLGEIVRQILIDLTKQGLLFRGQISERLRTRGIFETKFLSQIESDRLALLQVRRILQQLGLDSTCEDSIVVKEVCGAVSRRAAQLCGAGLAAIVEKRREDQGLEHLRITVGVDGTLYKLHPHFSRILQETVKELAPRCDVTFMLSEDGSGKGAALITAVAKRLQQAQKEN

Compound	IC50 [1]	IC50 [2]	IC50 [3]	EC50 [4]	EC50 [5]	AC50 [6]	EC50 [7]	EC50 [8]	EC50 [9]	EC50 [10]	EC50 [11]	AC50 [12]	EC50 [13]	EC50 [14]	AC50 [15]	EC50 [16]	IC50 [17]
CCOc1cccc(/C=N/NC(=S)Nc2ccccc2[N+](=O)[O-])c1O	4.25 µM (active)	5.05 µM (active)	2.65 µM (active)	–	–	–	–	–	–	–	–	–	–	–	–	–	–
CCCCC(=O)NC(c1ccc(N(CC)CC)cc1)c1ccc2cccnc2c1O (configuration not stated)	–	–	–	> 350 µM (not active)	2.41 µM (active)	5.16 µM (active)	0.884 µM (active)	> 150 µM (inactive)	> 80 µM (inactive)	0.717 µM (active)	5.53 µM (active)	1.12 µM (active)	13.3 µM (active)	0.405 µM (active)	0.635 µM (active)	0.241 µM (active)	> 119 µM (inactive)
